Where two headings read alike, the source gives them in different places.
Experiments:
PC-3_TxR xenograft = experiment: In vivo PC-3/TxR xenograft; conditions: PC-3/TxR mice; 17ya […], 55 30 mg/kg
[1] = test system: confluent HUVEC monolayers; experiment: Endothelial monolayer permeability assay; conditions: FITC-dextran leakage, 1, 2, 4 h
CYP enzymes = experiment: CYP enzyme inhibition assays
[2] = Pharmacokinetic study in ICR mice; conditions: Mouse PK
[3] = test system: tubulin (colchicine, vinblastine and paclitaxel binding sites); experiment: MS competition binding assay; conditions: competitive mass binding assay
Source text: Each reaction was run in triplicate.

[4] = Pharmacokinetic study in Sprague-Dawley rats; conditions: Rat PK, PO 10 mg/kg
[5] = Permeability (drug-like properties)
[6] = test system: PPC-1 human prostate cancer cell line; experiment: Cytotoxicity (SRB) assay, PPC-1; type: cell-based; conditions: Homo sapiens, PPC-1, SRB assay, prostate cancer PPC-1; read-out: IC50 PPC-1
Source text: (§1) Cells were stained with SRB solution.

[7] = test system: LNCaP human prostate cancer cell line; experiment: Cytotoxicity (SRB) assay, LNCaP; type: cell-based; conditions: Homo sapiens, LNCaP, SRB assay, prostate cancer LNCaP; read-out: IC50 LNCaP
Source text: as §1

[8] = test system: PC-3 human prostate cancer cell line; experiment: cells; conditions: Homo sapiens
Source text: as §1

[9] = test system: melanoma and prostate cancer cell lines; experiment: Antiproliferative activity summarised over the cell line panel (range or average); type: cell-based; conditions: read-out: IC50 range against prostate cancer cells, range over prostate cancer cell lines
[10] = Pharmacokinetic study in beagle dogs; conditions: Dog PK, PO 5 mg/kg

COc1cc(C(=O)c2csc(Nc3ccc4[nH]ccc4c3)n2)cc(OC)c1OC [compound 55, (2-(1H-INDOL-5-YLAMINO)THIAZOL-4-YL)(3,4,5-TRIMETHOXYPHENYL)METHANONE]
body weight in words (PC-3_TxR xenograft): gaining weight | permeability of endothelial cell monolayer in words [1]: increased permeability | CYP enzyme inhibition in words (CYP enzymes): high IC50 values in micromolar range | t1/2 ([2]; IV 10 mg/kg): 0.767 h | F ([2]; PO 20 mg/kg): 34% | t1/2 ([2]; PO 20 mg/kg): 2.1 h | competition for tubulin binding sites in words [3]: competed effectively with colchicine | F [4]: 24% | t1/2 [4]: 5.83 ± 3.57 h | permeability in words [5]: more than adequate permeability values | IC50 [6]: 15 ± 1 nM | IC50 [7]: 13 ± 1 nM | IC50 ([8]; 96 h, read-out: Cytotoxicity IC50, PC-3, Table 15, mean ± SD, 96 h treatment, N = 3): 16 ± 1.5 nM | IC50 ([8]; read-out: IC50 PC-3, SRB assay, prostate cancer PC-3): 12 ± 1 nM | IC50 ([8]; read-out: IC50 in PC3, Table 16B): 28 nM | IC50 [9]: 7.5 to 24.1 nM | F [10]: 36%
